Data on 52 molecules can be found in ChEMBL document CHEMBL4184207, “Novel compounds with potent CDK9 inhibitory activity for the treatment of myeloma” (Bioorg Med Chem Lett, 2018).

SMILES strings stand for the structures.

In one test the target is CDK9/cyclin T1 (Homo sapiens, UniProt P50750). Briefly: Inhibition of N-terminal GST-HIS6 fusion protein tagged human full length CDK9 (M1 to F372 residues)/N-terminal GST-HIS6 fusion protein tagged human Cyclin-T1 (M1 to K726 residues) expressed in Sf9 cells at 10 uM using TAMRA-Rbtide substrate and ATP incubated for 1 hr by fluorescent polarization assay.
Chain of CDK9/cyclin T1 (O60563 whole entry, the tested form may be a part): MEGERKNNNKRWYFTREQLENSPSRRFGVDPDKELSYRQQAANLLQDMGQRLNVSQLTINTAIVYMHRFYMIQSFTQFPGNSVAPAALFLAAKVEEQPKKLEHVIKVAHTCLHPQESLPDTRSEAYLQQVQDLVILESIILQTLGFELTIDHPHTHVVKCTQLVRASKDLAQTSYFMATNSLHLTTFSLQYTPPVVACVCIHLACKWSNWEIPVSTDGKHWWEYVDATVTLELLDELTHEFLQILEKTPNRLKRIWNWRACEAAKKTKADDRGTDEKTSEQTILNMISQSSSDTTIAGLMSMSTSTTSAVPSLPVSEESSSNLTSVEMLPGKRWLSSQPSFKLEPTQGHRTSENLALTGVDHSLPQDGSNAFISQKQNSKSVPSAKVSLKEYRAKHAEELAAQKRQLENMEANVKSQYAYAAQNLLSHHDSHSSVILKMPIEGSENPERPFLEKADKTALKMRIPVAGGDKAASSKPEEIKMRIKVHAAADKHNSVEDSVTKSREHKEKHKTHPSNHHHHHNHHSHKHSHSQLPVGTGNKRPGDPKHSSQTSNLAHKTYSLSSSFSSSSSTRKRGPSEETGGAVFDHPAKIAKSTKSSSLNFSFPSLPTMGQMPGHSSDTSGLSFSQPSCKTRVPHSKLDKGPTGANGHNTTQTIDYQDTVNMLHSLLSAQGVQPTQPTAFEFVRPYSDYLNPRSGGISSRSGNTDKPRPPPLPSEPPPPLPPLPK
Chain of CDK9/cyclin T1 (P50750 whole entry, the tested form may be a part): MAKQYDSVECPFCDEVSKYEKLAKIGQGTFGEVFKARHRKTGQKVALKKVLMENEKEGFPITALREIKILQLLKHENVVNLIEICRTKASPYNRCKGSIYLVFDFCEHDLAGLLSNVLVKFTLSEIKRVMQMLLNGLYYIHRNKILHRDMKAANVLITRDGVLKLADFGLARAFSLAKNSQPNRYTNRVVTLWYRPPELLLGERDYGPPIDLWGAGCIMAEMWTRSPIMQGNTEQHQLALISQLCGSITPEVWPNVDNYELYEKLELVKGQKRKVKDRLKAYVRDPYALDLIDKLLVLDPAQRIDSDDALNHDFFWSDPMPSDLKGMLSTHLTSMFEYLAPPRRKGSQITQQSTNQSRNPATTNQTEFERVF
Test [1] deals with CDK7/Cyclin H/MNAT1 (Homo sapiens) (UniProt P51946+P50613+P51948). Briefly: Inhibition of N-terminal GST-HIS6 fusion protein tagged human CDK7 (M1 to F346 residues)/N-terminal HIS6-tagged human Cyclin-H (M1 to L323 residues)/N-terminal HIS6-tagged human MAT1 (M1 to S306 residues) expressed in Sf9 cells at 1 uM using RB-CTF substrate and ATP incubated for 1 hr by fluorescent polarization assay.

Test [2] deals with CDK2/Cyclin A2 (Homo sapiens) (UniProt P24941+P20248). Kind of test: Inhibition of human full length CDK2 (M1 to L298 residues)/human full length Cyclin-A2 (M1 to L432 residues) expressed in Sf9 cells at 1 uM using TAMRA-histone H1-derived peptide substrate and ATP incubated for 1 hr by fluorescent polarization assay.
Test [3] deals with T1, Serine/threonine-protein kinase PLK1 (Homo sapiens, UniProt P53350). Briefly: Inhibition of human PLK1 kinase domain using 5-TAMRA-RGSFNDTLDFD-NH2 substrate and ATP incubated for 90 mins by fluorescent polarization assay.
T1 sequence (P53350 whole entry, the tested form may be a part): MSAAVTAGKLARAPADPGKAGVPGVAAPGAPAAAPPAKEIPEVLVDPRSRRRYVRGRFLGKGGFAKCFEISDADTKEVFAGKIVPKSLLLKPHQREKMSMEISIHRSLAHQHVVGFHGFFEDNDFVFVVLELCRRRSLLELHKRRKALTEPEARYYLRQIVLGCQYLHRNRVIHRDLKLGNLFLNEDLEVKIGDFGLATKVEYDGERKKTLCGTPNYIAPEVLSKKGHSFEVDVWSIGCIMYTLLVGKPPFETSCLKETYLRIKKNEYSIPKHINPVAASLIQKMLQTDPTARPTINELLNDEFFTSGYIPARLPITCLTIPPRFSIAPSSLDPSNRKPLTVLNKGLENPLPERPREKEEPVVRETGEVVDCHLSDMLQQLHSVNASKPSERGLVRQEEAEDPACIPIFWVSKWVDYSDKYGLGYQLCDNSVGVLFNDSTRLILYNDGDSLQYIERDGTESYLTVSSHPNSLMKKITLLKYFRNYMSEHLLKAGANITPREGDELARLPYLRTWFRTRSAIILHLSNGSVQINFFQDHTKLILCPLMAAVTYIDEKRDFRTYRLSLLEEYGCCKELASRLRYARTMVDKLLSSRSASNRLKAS
For another test, the system named is RPMI-8226. Briefly: Antiproliferative activity against human RPMI8226 cells assessed as inhibition of cell proliferation incubated for 72 hrs by Cell-titer-Glo luminescent cell viability assay. It counts as functional, cell-based. The following applies: RPMI-8226, 72 h.
The target of test [4] is T1, Serine/threonine-protein kinase PLK1. Kind of test: Inhibition of human PLK1 kinase domain at 10 uM using 5-TAMRA-RGSFNDTLDFD-NH2 substrate and ATP incubated for 90 mins by fluorescent polarization assay.

Take `COc1cc(F)ccc1-c1ccnc(Nc2ccc(S(=O)(=O)Nc3nccs3)cc2)n1`: the IC50 on CDK9/cyclin T1 turned out to be 122 nM.

The molecule `COc1cc(F)c(F)cc1-c1ccnc(Nc2ccc(S(=O)(=O)Nc3nnc(C)s3)cc2)n1` showed an IC50 at CDK9/cyclin T1 of 10 nM. `COc1cc(F)c(-c2ccnc(Nc3ccc(S(=O)(=O)Nc4onc(C)c4C)cc3)n2)c(F)c1`: the IC50 against CDK9/cyclin T1 worked out at 21 nM.

For `COc1cccc(F)c1-c1ccnc(Nc2ccc(S(=O)(=O)Nc3onc(C)c3C)cc2)n1`, the inhibition amounted to 1% in test [1] and 44% in test [2]. In addition, the IC50 worked out at 1 nM against CDK9/cyclin T1, 12400 nM in test [3] and 26600 nM in the test with RPMI-8226. As for `COc1ccc(-c2ccnc(Nc3ccc(S(=O)(=O)Nc4onc(C)c4C)cc3)n2)c(OC)c1`, at CDK9/cyclin T1, inhibition was half-maximal at 9 nM (IC50). In test [4], the inhibition came to 34%. For the molecule `COc1cc(F)c(Nc2nccc(-c3ccccc3OC)n2)cc1C(N)=O`, the IC50 was found to be 1580 nM against CDK9/cyclin T1 and 21500 nM in the test on RPMI-8226. For `Cc1noc(NS(=O)(=O)c2ccc(Nc3nccc(-c4cccc(OC(C)C)c4F)n3)cc2)c1C`, the IC50 against CDK9/cyclin T1 was 458 nM. In test [4], this molecule displayed an inhibition of 65%.

For the molecule `COc1cc(F)ccc1-c1ccnc(Nc2cccc(Cn3cnc4ccccc43)c2)n1`, the IC50 against CDK9/cyclin T1 came to 4 nM. On the same count and under the same terms, the same measure for `CCOc1cc(Cl)ccc1-c1ccnc(Nc2cc(C(N)=O)c(OC)cc2F)n1`: greater than 12500 nM.

Take `COc1cc(F)ccc1-c1ccnc(Nc2ccc(S(=O)(=O)Nc3noc4ccccc34)cc2)n1`: the IC50 was determined as 5 nM against CDK9/cyclin T1 and 15500 nM in the test with RPMI-8226. In the case of `COc1cc(F)c(Nc2nccc(-c3ccc(F)cc3OC(C)C)n2)cc1C(N)=O`, at CDK9/cyclin T1, the IC50 was greater than 12500 nM. In the case of `COc1cc(F)ccc1-c1ccnc(Nc2ccc(S(=O)(=O)Nc3noc(C)c3C)cc2)n1`, the inhibition in test [1] and in test [2] was 0% throughout. In addition, the IC50 was 3 nM on CDK9/cyclin T1 and greater than 12500 nM in test [3]. Turning to `COc1cc(F)ccc1-c1ccnc(Nc2ccc(S(=O)(=O)Nc3nnc(C)s3)cc2)n1`, at CDK9/cyclin T1, half-maximal inhibition (IC50) required 6 nM. As for `COc1cccc(F)c1-c1ccnc(Nc2ccc(S(=O)(=O)Nc3nnc(C)s3)cc2)n1`, the inhibition in test [1] turned out to be 2%; in test [2], 29%. The half-maximal inhibitory concentration (IC50) on CDK9/cyclin T1 is 2 nM; in test [3] it was greater than 12500 nM. Taken in the same sequence, the figures for `COc1cccc(F)c1-c1ccnc(Nc2ccc(S(=O)(=O)Nc3nccs3)cc2)n1` were 0%, 46%, 2 nM and greater than 12500 nM.

On CDK9/cyclin T1, `COc1cccc(Cl)c1-c1ccnc(Nc2ccc(S(=O)(=O)Nc3onc(C)c3C)cc2)n1` displayed an IC50 of 25 nM. `Cc1cc(F)ccc1-c1ccnc(Nc2ccc(S(=O)(=O)Nc3onc(C)c3C)cc2)n1` returned a concentration for half-maximal inhibition (IC50) on CDK9/cyclin T1 of 6 nM.

With `COc1ccccc1-c1ccnc(Nc2ccc(S(=O)(=O)Nc3nnc(C)s3)cc2)n1`, the IC50 against CDK9/cyclin T1 was found to be 12 nM.

In turn, `CCOc1cc(F)ccc1-c1ccnc(Nc2ccc(S(=O)(=O)Nc3nnc(C)s3)cc2)n1` returned a half-inhibitory concentration (IC50) at CDK9/cyclin T1 of 2 nM. Same read-out and setting: next, `COc1ccc(-c2ccnc(Nc3ccc(S(=O)(=O)Nc4nnc(C)s4)cc3)n2)c(OC)c1`: 14 nM. Molecule `COc1cc(F)c(Nc2nccc(-c3ccc(F)cc3OC)n2)cc1C(N)=O` showed an IC50 at CDK9/cyclin T1 greater than 12500 nM. Take `Cc1noc(NS(=O)(=O)c2ccc(Nc3nccc(-c4ccc(F)cc4F)n3)cc2)c1C`: at CDK9/cyclin T1, 11 nM corresponded to half-maximal inhibition (IC50). The molecule further gave an inhibition in test [4] of 55%.

Regarding `CCOc1cc(Cl)ccc1-c1ccnc(Nc2ccc(S(=O)(=O)Nc3nccs3)cc2)n1`, at CDK9/cyclin T1, the IC50 turned out to be 378 nM. Consider `COc1ccccc1-c1ccnc(Nc2ccc(S(=O)(=O)Nc3onc(C)c3C)cc2)n1`, for which the IC50 against CDK9/cyclin T1 worked out at 3 nM; in the test with RPMI-8226, 29200 nM. Besides, in test [4], the inhibition amounted to 56%. With `COc1cc(F)ccc1-c1cc(Nc2ccc(S(=O)(=O)Nc3onc(C)c3C)cc2)ncn1`, at CDK9/cyclin T1, 40 nM corresponded to half-maximal inhibition (IC50).

The molecule `CCOc1cc(F)ccc1-c1ccnc(Nc2ccc(S(=O)(=O)Nc3nccs3)cc2)n1` yielded a half-maximal inhibitory concentration (IC50) at CDK9/cyclin T1 of 210 nM. With `COc1cc(F)ccc1-c1ccnc(Nc2ccc(C(=O)Nc3onc(C)c3C)cc2)n1`, the IC50 against CDK9/cyclin T1 turned out to be 135 nM. Take `CSc1cc(F)ccc1-c1ccnc(Nc2ccc(S(=O)(=O)Nc3onc(C)c3C)cc2)n1`: the midpoint of inhibition at CDK9/cyclin T1, the IC50, lay at 13 nM. For the molecule `COc1cc(F)ccc1-c1ccnc(Nc2ccc(S(=O)(=O)Nc3onc(C)c3C)cc2)n1`, the figures for the inhibition in test [1], in test [2] and in test [4] were 3%, 43% and 35%, respectively. Further, the IC50 was 2 nM against CDK9/cyclin T1 and greater than 12500 nM in test [3]. In the same order, the values of `COc1ccc(F)c(F)c1-c1ccnc(Nc2ccc(S(=O)(=O)Nc3onc(C)c3C)cc2)n1` are 2%, 83%, 75%, 1 nM and 5910 nM. Molecule `CCOc1cc(F)ccc1-c1ccnc(Nc2cc(C(N)=O)c(OC)cc2F)n1` came in with an IC50 on CDK9/cyclin T1 greater than 12500 nM. Take `CCOc1cccc(F)c1-c1ccnc(Nc2ccc(S(=O)(=O)Nc3onc(C)c3C)cc2)n1`: the inhibition in test [1] is 0%; in test [2] it was 14%. In addition, the results for the IC50 (against CDK9/cyclin T1; in test [3]) were 2 nM and greater than 12500 nM, respectively. Regarding `COc1ccccc1-c1ccnc(Nc2ccc(S(=O)(=O)Nc3noc(C)c3C)cc2)n1`, the IC50 against CDK9/cyclin T1 is 4 nM; in the test with RPMI-8226, 12300 nM. Regarding `COc1ccc(F)cc1-c1ccnc(Nc2ccc(S(=O)(=O)Nc3nnc(C)s3)cc2)n1`, inhibition against CDK9/cyclin T1 was half-maximal at 9 nM (IC50). Turning to `COc1cccc(F)c1-c1ccnc(Nc2cccc(Cn3cnc4ccccc43)c2)n1`, the inhibition amounted to 0% in test [1] and 44% in test [2]. For the same molecule, the IC50 on CDK9/cyclin T1 was 2 nM; in test [3], greater than 12500 nM; with RPMI-8226 it was 1780 nM.

Turning to `COc1ccc(F)c(F)c1-c1ccnc(Nc2ccc(S(=O)(=O)Nc3nnc(C)s3)cc2)n1`, the inhibition in test [1] was 7%; in test [2] it was 50%. In addition, the IC50 on CDK9/cyclin T1 is 0.4 nM; in test [3], greater than 12500 nM; with RPMI-8226, 11700 nM. At CDK9/cyclin T1, `Cc1noc(NS(=O)(=O)c2ccc(Nc3nccc(-c4ccc(F)cc4OC(C)C)n3)cc2)c1C` came in with an IC50 of 49 nM. Further, in test [4], the inhibition was 13%.

Consider `COc1cc(F)c(Nc2nccc(-c3c(F)cccc3OC)n2)cc1C(N)=O`, for which the IC50 against CDK9/cyclin T1 was greater than 12500 nM; with RPMI-8226, 20500 nM. Molecule `Cc1noc(NS(=O)(=O)c2ccc(Nc3nccc(-c4ccc(Cl)cc4Cl)n3)cc2)c1C` displayed a 50% inhibitory concentration (IC50) at CDK9/cyclin T1 of 50 nM. Same read-out and setting: the same measure for `COc1ccc(F)cc1-c1ccnc(Nc2ccc(S(=O)(=O)Nc3onc(C)c3C)cc2)n1`: 9 nM. The same measure, in the same setting: next, `COc1cc(F)c(Nc2nccc(-c3cc(F)c(F)cc3OC)n2)cc1C(N)=O`: greater than 12500 nM. `Cc1noc(NS(=O)(=O)c2ccc(Nc3nccc(-c4ccc(F)cc4Cl)n3)cc2)c1C` had an IC50 against CDK9/cyclin T1 of 55 nM. As to `COc1cc(F)c(Nc2nccc(-c3ccc(F)cc3F)n2)cc1C(N)=O`, the IC50 at CDK9/cyclin T1 was greater than 12500 nM. On the same count and under the same terms, next, `COc1cc(F)ccc1-c1ccnc(Nc2ccc(C(=O)O)cc2)n1`: 66 nM; `CCOc1cc(Cl)ccc1-c1ccnc(Nc2ccc(S(=O)(=O)Nc3nnc(C)s3)cc2)n1`: 5 nM. At CDK9/cyclin T1, `CCOc1cc(F)ccc1-c1ccnc(Nc2ccc(S(=O)(=O)Nc3onc(C)c3C)cc2)n1` had a concentration for half-maximal inhibition (IC50) of 8 nM. Also, the inhibition in test [4] was 11%.

In turn, `COc1cc(Cl)ccc1-c1ccnc(Nc2ccc(S(=O)(=O)Nc3onc(C)c3C)cc2)n1` had an IC50 on CDK9/cyclin T1 of 12 nM. `COc1ccccc1-c1ccnc(Nc2cccc(Cn3cnc4ccccc43)c2)n1`: the values for the inhibition in test [1] and in test [2] were 0% and 9%, respectively. The results for the IC50 (at CDK9/cyclin T1; in test [3]; with RPMI-8226) were 3 nM, greater than 12500 nM and 1340 nM, respectively. In the case of `COc1ccccc1-c1ccnc(Nc2ccc(S(=O)(=O)Nc3nccs3)cc2)n1`, the values for the 50% inhibitory concentration (IC50) on CDK9/cyclin T1 and in the test with RPMI-8226 were 33 nM and 24700 nM, respectively.

`CCOc1cc(Cl)ccc1-c1ccnc(Nc2ccc(S(=O)(=O)Nc3onc(C)c3C)cc2)n1` yielded an IC50 against CDK9/cyclin T1 of 17 nM. This molecule gave an inhibition in test [4] of 5%. Molecule `COc1cc(F)ccc1-c1ccnc(Nc2ccc(-c3c(C)noc3C)cc2)n1` registered an IC50 against CDK9/cyclin T1 greater than 12500 nM. The molecule `COc1cc(F)c(F)cc1-c1ccnc(Nc2ccc(S(=O)(=O)Nc3onc(C)c3C)cc2)n1` displayed an IC50 against CDK9/cyclin T1 of 8 nM. The same molecule registered an inhibition in test [4] of 37%.

One may read the IC50 as the point on the concentration scale where inhibition reaches its midpoint. By inhibition is commonly meant the share of the control response that was lost under treatment.
